From the NIST ThermoML archive (doi:10.1016/j.jct.2008.06.009)

Assay: xn = mol fraction of the nth substance listed
Details: Liquid, Bellows volumetry

N [ammonia] + O
mass density [kg/m3]
Details	x1 = 0.1048	x1 = 0.2046	x1 = 0.3807	x1 = 0.5565	x1 = 0.7008	x1 = 0.801	x1 = 0.9102	x1 = 1
450 K, 10000 kPa	843.9	796.9	708.1	608.5	–	–	–	–
450 K, 20000 kPa	850.4	804.3	718.8	625.9	534.7	458.5	–	–
450 K, 30000 kPa	856.6	811	728.1	639.8	557.7	495.6	422	355.3
450 K, 40000 kPa	862.7	817.8	736.8	651.6	575.2	519.2	457.5	403.7
450 K, 50000 kPa	868.5	823.8	744.9	662.2	589.4	537.4	481.3	433.4
450 K, 60000 kPa	873.9	829.6	751.5	671.3	601.8	552.2	499.7	455.2
450 K, 70000 kPa	879.1	835.4	758.3	680.1	612.5	564.9	514.8	472.6
450 K, 80000 kPa	884.2	840.9	765.1	687.8	622.2	576	527.7	487.4
450 K, 90000 kPa	889.2	845.9	771.1	695.3	631.2	586.2	539.1	500.2
450 K, 100000 kPa	893.9	850.6	777.1	702.2	639.2	595.2	549.2	511.7
450 K, 120000 kPa	902.7	860.3	788.1	714.8	654	611.5	566.9	531.4
450 K, 140000 kPa	911.3	868.9	798.6	726.2	666.9	625.9	582.2	548.2
450 K, 160000 kPa	919.5	877.1	807.9	736.6	678.7	638.7	595.6	563.1
450 K, 180000 kPa	927	885.1	817.2	746.2	689.4	650.1	607.8	576.3
450 K, 200000 kPa	934.3	892.2	825.3	755.2	699.3	660.9	618.7	588.2
500 K, 10000 kPa	782.5	728.2	–	–	–	–	–	–
500 K, 20000 kPa	792.5	740.4	641.7	517	–	–	–	–
500 K, 30000 kPa	801.3	751.1	658.5	551.1	447.5	–	–	–
500 K, 40000 kPa	809.6	760.6	672.4	574	487.8	422	–	–
500 K, 50000 kPa	817.3	769.5	684.3	591.7	514.1	456.2	–	350.9
500 K, 60000 kPa	824.3	777.5	695.3	606.4	534.1	480.7	426.9	384.9
500 K, 70000 kPa	831.3	785.1	704.8	619	550.6	499.8	450	410.1
500 K, 80000 kPa	837.7	792.1	713.9	630.1	564.5	515.8	468.5	430.2
500 K, 90000 kPa	843.7	798.6	721.8	640.2	576.7	529.6	484.1	446.9
500 K, 100000 kPa	849.7	805	729.7	649.4	587.6	541.6	497.6	461.5
500 K, 120000 kPa	860.7	816.7	743.7	665.7	606.7	562.5	520.1	485.8
500 K, 140000 kPa	870.8	827.5	756.6	679.9	623.1	580.1	538.9	505.9
500 K, 160000 kPa	880.6	837.4	768.3	692.9	637.4	595.3	555	523.1
500 K, 180000 kPa	889.4	846.7	779.3	704.5	650.4	608.9	569.2	538.3
500 K, 200000 kPa	897.9	855.4	789.2	715	662.1	621.2	581.9	551.9
